# How the values were obtained:
# Format in all cases: biochemical
# Conditions in all cases: continuous assay 60 min, reaction initiated by adding enzyme
# [1] = target: T1, MCH-2 (Homo sapiens, UniProt P55212); test: Dissociation constant Ki and irreversible rate constant k3 for irreversible inhibitors, Mch2
# T1 sequence (P55212 24-179 limits assumed): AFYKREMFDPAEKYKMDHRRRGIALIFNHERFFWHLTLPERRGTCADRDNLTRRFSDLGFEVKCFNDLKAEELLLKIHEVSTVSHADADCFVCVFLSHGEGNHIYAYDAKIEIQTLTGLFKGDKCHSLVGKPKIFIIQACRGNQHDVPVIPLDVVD
# T1 sequence (P55212 194-293 limits assumed): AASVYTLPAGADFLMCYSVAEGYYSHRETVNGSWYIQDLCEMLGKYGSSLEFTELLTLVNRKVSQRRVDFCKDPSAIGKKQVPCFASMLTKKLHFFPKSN
# Text: (§1) For the irreversible inhibition of a ICE/ced-3 Family Protease enzyme with a competitive irreversible inhibitor; using the model represented by the following formulas: […]
# (§2) The product formation at time t may be expressed as:
# (§3) [formula] where E, I, EI and E-I denote the active enzyme, inhibitor, non-covalent enzyme-inhibitor complex and covalent enzyme-inhibitor adduct, respectively. The Ki value is the overall dissociation constant of the reversible binding steps, and k3 is the irreversible rate constant. The [S] and Ks values are the substate concentration and dissociation constant of the substrate bound to the enzyme, respectively. [E]^T is the total enzyme concentration.
# (§4) The above equations were used to determine the Ki and k3 values of a given inhibitor bound to a ICE/ced-3 family protease. Thus, a continuous assay was run for sixty minutes at various concentrations of the inhibitor and the substrate. The assay was formulated essentially the same as described above for generating the data in Table 1, except that the reaction was initiated by adding the enzyme to the substrate-inhibitor mixture. The Ki and k3 values were obtained by simulating the product AMC formation as a function of time according to Equation 1.
# (§5) The reference compound for this assay was Cbz-ValAlaAsp-CH2F and the values are denoted in Table 2 as “Reference”. The Ki values in Table 2 are in micromolar (μM). The k3/Ki values are in moles^−1 seconds^−1 (M^−1s^−1).
# [2] = target: T2, CPP32 (Homo sapiens, UniProt P42574); test: Dissociation constant Ki and irreversible rate constant k3 for irreversible inhibitors, CPP32
# T2 sequence (P42574 29-175 limits assumed): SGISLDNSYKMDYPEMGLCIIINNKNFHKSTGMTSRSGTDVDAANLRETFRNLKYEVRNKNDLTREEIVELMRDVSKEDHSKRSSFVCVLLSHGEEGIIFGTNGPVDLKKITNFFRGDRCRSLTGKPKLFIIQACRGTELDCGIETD
# T2 sequence (P42574 176-277 limits assumed): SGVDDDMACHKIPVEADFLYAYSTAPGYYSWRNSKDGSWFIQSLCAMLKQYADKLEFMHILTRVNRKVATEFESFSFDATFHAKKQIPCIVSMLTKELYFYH
# Text: as §1, §2, §3, §4, §5
# [3] = target: T3, mICE (Mus musculus, UniProt P29452); test: Dissociation constant Ki and irreversible rate constant k3 for irreversible inhibitors, ICE
# T3 sequence (P29452 123-296 limits assumed): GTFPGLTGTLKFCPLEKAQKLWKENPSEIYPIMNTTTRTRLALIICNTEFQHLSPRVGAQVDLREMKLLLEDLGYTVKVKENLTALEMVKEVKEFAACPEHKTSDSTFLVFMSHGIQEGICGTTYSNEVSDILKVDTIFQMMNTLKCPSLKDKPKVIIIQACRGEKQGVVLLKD
# T3 sequence (P29452 315-402 limits assumed): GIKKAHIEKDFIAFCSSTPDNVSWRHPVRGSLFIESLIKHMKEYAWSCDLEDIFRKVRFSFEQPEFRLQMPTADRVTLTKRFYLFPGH
# Text: as §1, §2, §3, §4, §5
# [4] = target: MCH-5 (Homo sapiens, UniProt Q14790); test: Dissociation constant Ki and irreversible rate constant k3 for irreversible inhibitors, Mch5
# Text: as §1, §2, §3, §4, §5
# Chain of MCH-5 (Q14790 217-374 limits assumed, species assumed): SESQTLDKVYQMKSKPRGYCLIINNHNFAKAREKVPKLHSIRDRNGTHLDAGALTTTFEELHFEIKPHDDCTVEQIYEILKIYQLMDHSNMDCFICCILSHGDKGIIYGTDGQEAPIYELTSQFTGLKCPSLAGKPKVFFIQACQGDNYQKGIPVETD
# Chain of MCH-5 (Q14790 385-479 limits assumed, species assumed): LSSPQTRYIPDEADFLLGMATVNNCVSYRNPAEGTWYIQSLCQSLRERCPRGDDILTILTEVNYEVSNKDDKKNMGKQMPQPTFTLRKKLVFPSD
Structure (SMILES),Ki [1] [nM],MCH-2 k3/Ki [1],CPP32 k3/Ki [2],Ki [2] [nM],Ki [3] [nM],mICE k3/Ki [3],Ki [4] [nM],MCH-5 k3/Ki [4]
CC(C)C[C@H](NC(=O)COc1ccccc1-c1ccccc1)C(=O)N[C@@H](CC(=O)O)C(=O)COc1c(F)c(F)cc(F)c1F [Example 164],23,"91,700 M^−1s^−1","137,000 M^−1s^−1",63,467,"24,000 M^−1s^−1",223,"6,190 M^−1s^−1"
"CC(C)C[C@H](NC(=O)COc1ccccc1-c1ccccc1)C(=O)NC(CC(=O)O)C(=O)CF (mixture of isomers) [Example 57, (3RS)-3-[N-((2-Phenylphenoxy)Acetyl)Leucinyl]Amino-5-Fluoro-4-Oxopentanoic Acid]",30,"91,000 M^−1s^−1","177,000 M^−1s^−1",42,120,"37,400 M^−1s^−1",66,"15,900 M^−1s^−1"
C[C@H](NC(=O)COc1ccccc1-c1ccccc1)C(=O)NC(CC(=O)O)C(=O)COc1c(F)c(F)cc(F)c1F (some centres unmarked) [Example 177],47,"21,100 M^−1s^−1","89,700 M^−1s^−1",86,225,"45,600 M^−1s^−1",439,"4,370 M^−1s^−1"
CC(C)[C@H](NC(=O)COc1cccc2ccccc12)C(=O)N[C@@H](CC(=O)O)C(=O)COc1cc(F)cc(F)c1F [Example 75],221,"1,510 M^−1s^−1","60,100 M^−1s^−1",61,147,"14,700 M^−1s^−1",794,"1,470 M^−1s^−1"
CC(C)[C@H](NC(=O)COc1cccc2ccccc12)C(=O)N[C@@H](CC(=O)O)C(=O)COc1cc(F)cc(F)c1 [Example 73],862,110 M⁻¹ s⁻¹,"9,240 M^−1s^−1",106,592,"2,170 M^−1s^−1",1030,150 M⁻¹ s⁻¹
CC(C)[C@H](NC(=O)COc1ccc2ccccc2c1)C(=O)N[C@@H](CC(=O)O)C(=O)COC(=O)c1c(Cl)cccc1Cl [Example 155],15,"166,000 M^−1s^−1","206,000 M^−1s^−1",47,168,"59,800 M^−1s^−1",136,"7,910 M^−1s^−1"
"CC(C)[C@H](NC(=O)COc1cccc2ccccc12)C(=O)N[C@@H](CC(=O)O)C(=O)COn1nnc2ccccc2c1=O [Example 62, (3S)-3-[N-((1-Naphthyloxy)Acetyl)Valinyl]Amino-5-(1′,2′,3′-Benzotriazin-4′(3H)-on-3′-yloxy)-4-Oxopentanoic Acid]",42,"44,000 M^−1s^−1","169,000 M^−1s^−1",52,253,"45,400 M^−1s^−1",48,"18,200 M^−1s^−1"
CC(C)[C@H](NC(=O)COc1cccc2ccccc12)C(=O)N[C@@H](CC(=O)O)C(=O)COc1ccc(F)cc1F [Example 69],951,0 M⁻¹ s⁻¹,"21,700 M^−1s^−1",92,615,"8,400 M^−1s^−1",1300,630 M⁻¹ s⁻¹
"CC(C)C[C@H](NC(=O)COc1c(C(=O)O)ccc2ccccc12)C(=O)N[C@@H](CC(=O)O)C(=O)COC(=O)c1c(Cl)cccc1Cl [Example 165, (3S)-3-[N-((2′-Carboxy-1′-Naphthyloxy)Acetyl)Leucinyl]-Amino-5-(2′,6′-Dichlorobenzoyloxy)-4-Oxopentanoic Acid]",8,"116,000 M^−1s^−1","335,000 M^−1s^−1",20,396,"25,500 M^−1s^−1",89,"13,100 M^−1s^−1"
CC(C)[C@H](NC(=O)COc1cccc2ccccc12)C(=O)N[C@@H](CC(=O)O)C(=O)COc1c(F)c(F)c(F)c(F)c1F [Example 80],23,"13,600 M^−1s^−1","56,600 M^−1s^−1",99,926,"4,700 M^−1s^−1",146,"8,040 M^−1s^−1"
CC(C)[C@H](NC(=O)COc1ccccc1-c1ccccc1)C(=O)N[C@@H](CC(=O)O)C(=O)COc1c(F)c(F)cc(F)c1F [Example 152],11,"191,000 M^−1s^−1","241,000 M^−1s^−1",29,191,"29,300 M^−1s^−1",66,"16,600 M^−1s^−1"
CC(C)[C@H](NC(=O)COc1ccc2ccccc2c1)C(=O)N[C@@H](CC(=O)O)C(=O)COc1c(F)c(F)cc(F)c1F [Example 157],22,"72,000 M^−1s^−1","53,300 M^−1s^−1",257,225,"39,300 M^−1s^−1",72,"11,600 M^−1s^−1"
CC(C)[C@H](NC(=O)COc1cccc2ccccc12)C(=O)N[C@@H](CC(=O)O)C(=O)COc1cc(F)ccc1F [Example 70],357,"1,330 M^−1s^−1","49,000 M^−1s^−1",104,399,"12,100 M^−1s^−1",760,480 M⁻¹ s⁻¹
CC(C)[C@H](NC(=O)COc1cccc2ccccc12)C(=O)N[C@@H](CC(=O)O)C(=O)COc1ccccc1 [Example 64],153,"2,400 M^−1s^−1","19,200 M^−1s^−1",62,262,"3,630 M^−1s^−1",235,"4,260 M^−1s^−1"
CC(C)C[C@H](NC(=O)COc1ccccc1-c1ccccc1)C(=O)N[C@@H](CC(=O)O)C(=O)COC(=O)c1c(Cl)cccc1Cl [Example 162],29,"104,000 M^−1s^−1","246,000 M^−1s^−1",44,319,"22,200 M^−1s^−1",128,"5,290 M^−1s^−1"
CC(C)[C@H](NC(=O)COc1cccc2ccccc12)C(=O)N[C@@H](CC(=O)O)C(=O)COc1cccc(F)c1F [Example 68],383,"1,610 M^−1s^−1","28,800 M^−1s^−1",110,355,"14,800 M^−1s^−1",821,200 M⁻¹ s⁻¹
CC(C)[C@H](NC(=O)CCOc1cccc2ccccc12)C(=O)N[C@@H](CC(=O)O)C(=O)COC(=O)c1c(Cl)cccc1Cl [Example 158],22,"103,000 M^−1s^−1","98,200 M^−1s^−1",109,168,"34,300 M^−1s^−1",264,"1,610 M^−1s^−1"
CC(C)[C@H](NC(=O)COc1cccc2ccccc12)C(=O)N[C@@H](CC(=O)O)C(=O)COc1ccc(F)c(F)c1 [Example 72],1160,90 M⁻¹ s⁻¹,"6,460 M^−1s^−1",90,718,"1,620 M^−1s^−1",1040,120 M⁻¹ s⁻¹
CC(C)[C@H](NC(=O)COc1cccc2ccccc12)C(=O)N[C@@H](CC(=O)O)C(=O)COc1cccc(F)c1 [Example 66],344,48 M⁻¹ s⁻¹,"17,800 M^−1s^−1",121,442,"2,700 M^−1s^−1",406,460 M⁻¹ s⁻¹

# From patent US7157430B2, “(Substituted)acyl dipeptidyl inhibitors of the ICE/CED-3 family of cysteine proteases” (Idun Pharmaceuticals, Inc., priority 1998, dated 2007)
